Experiments:
Type in all cases: in vivo
[1] = system: field corn (Zea mays L., var. Dekalb 535, CORN); assay: Post-emerge test, crop safety; conditions: 14 days after application; for Post-emerge phytotoxicity rating CORN (crop damage): rating scale 0-100 (0 no damage, 100 complete death); for phytotoxicity rating CORN (crop damage): post-emerge, rating scale 0-100
In short: (§1)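 Each test used a mechanized track sprayer delivering 187 l/ha of acetone solution at 15–1000 g ai/ha. Post-emerge foliage at 2–3 leaves was treated with added 0.25% v/v non-ionic surfactant and bottom-watered only. Injury was assessed on day 14, where 100 means total kill.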

[2] = system: upland rice (Oryza sp., var. Tebonnet, RICE); assay: Post-emerge test, crop safety; conditions: 14 days after application; for Post-emerge phytotoxicity rating RICE (crop damage): rating scale 0-100 (0 no damage, 100 complete death); for phytotoxicity rating RICE (crop damage): post-emerge, rating scale 0-100
In short: as §1

[3] = system: field corn (Zea mays L., var. Dekalb 535, CORN); assay: Pre-emerge test, crop safety; conditions: for Pre-emerge phytotoxicity rating, crop damage CORN: rating scale 0-100, 14 days after application
In short: (§2)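 Sandy loam pots; pre-emerge: sown 1 d pre-spray, surface-watered after, then bottom-watered. Post-emerge: sown 8–21 d before, 2–3 leaf stage, + 0.25% v/v NIS, bottom-watered. Acetone, 187 l/ha track spray, 15–1000 g ai/ha. 0–100 injury score, day 14.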

[4] = system: upland rice (Oryza sp., var. Tebonnet, RICE); assay: Pre-emerge test, crop safety; conditions: for Pre-emerge phytotoxicity rating, crop damage RICE: rating scale 0-100, 14 days after application
In short: as §2

[5] = system: redroot pigweed (Amaranthus retroflexus, AMARE); assay: Pre-emerge test, greenhouse herbicide activity screening; conditions: for Pre-emerge herbicidal activity, phytotoxicity rating AMARE: rating scale 0-100, 14 days after application
In short: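 Compounds in acetone were track-sprayed at 15-1000 g ai/ha (187 l/ha) on sandy loam pots: pre-emerge one day after seeding, post-emerge at 2-3 leaf stage with 0.25% v/v non-ionic surfactant. Phytotoxicity was rated 14 days later on a 0 (no damage) to 100 (complete death) scale.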

[6] = system: barnyardgrass (Echinochloa crus-galli, ECHCG); assay: as above; conditions: for Pre-emerge herbicidal activity, phytotoxicity rating ECHCG: rating scale 0-100, 14 days after application
In short: (§3)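 Plants grown in 10 cm pots of sandy loam mix received acetone-dissolved compounds through a moving flat-fan nozzle. Doses ranged from 15 to 1000 g ai/ha. Pre-emerge pots were seeded one day earlier, post-emerge pots 8–21 days earlier. Fourteen days on, each pot was graded 0–100 for damage.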

[7] = system: green foxtail (Setaria viridis, SETVI); assay: as above; conditions: for Pre-emerge herbicidal activity, phytotoxicity rating SETVI: rating scale 0-100, 14 days after application
In short: as §3

[8] = system: ivyleaf morningglory (Ipomoea hederacea, IPOHE); assay: as above; conditions: for Pre-emerge herbicidal activity, phytotoxicity rating IPOHE: rating scale 0-100, 14 days after application
In short: as §3

[9] = system: velvetleaf (Abutilon theophrasti, ABUTH); assay: as above; conditions: for Pre-emerge herbicidal activity, phytotoxicity rating ABUTH: rating scale 0-100, 14 days after application
In short: as §3

[10] = system: sicklepod (Cassia obtusifolia, CASOB); assay: as above; conditions: for Pre-emerge herbicidal activity, phytotoxicity rating CASOB: rating scale 0-100, 14 days after application
In short: as §3

[11] = system: johnsongrass (Sorghum halepense, SORHA); assay: as above; conditions: for Pre-emerge herbicidal activity, phytotoxicity rating SORHA: rating scale 0-100, 14 days after application
In short: as §3

[12] = system: lambsquarters (Chenopodium album, CHEAL); assay: as above; conditions: for Pre-emerge herbicidal activity, phytotoxicity rating CHEAL: rating scale 0-100, 14 days after application
In short: as §3

[13] = system: large crabgrass (Digitaria sanguinalis, DIGSA); assay: as above; conditions: for Pre-emerge herbicidal activity, phytotoxicity rating DIGSA: rating scale 0-100, 14 days after application
In short: as §3

[14] = system: barnyardgrass (Echinochloa crus-galli, ECHCG); assay: Post-emerge test, greenhouse herbicide activity screening; conditions: 14 days after application; for Post-emerge Herbicidal Activity, phytotoxicity rating ECHCG: rating scale 0-100 (0 no damage, 100 complete death); for phytotoxicity rating ECHCG: post-emerge, rating scale 0-100
In short: as §3

[15] = system: redroot pigweed (Amaranthus retroflexus, AMARE); assay: as above; conditions: 14 days after application; for phytotoxicity rating AMARE: post-emerge
In short: as §3

[16] = system: green foxtail (Setaria viridis, SETVI); assay: as above; conditions: 14 days after application; for Post-emerge Herbicidal Activity, phytotoxicity rating SETVI: rating scale 0-100 (0 no damage, 100 complete death); for phytotoxicity rating SETVI: post-emerge, rating scale 0-100
In short: as §3

[17] = system: ivyleaf morningglory (Ipomoea hederacea, IPOHE); assay: as above; conditions: 14 days after application; for Post-emerge Herbicidal Activity, phytotoxicity rating IPOHE: rating scale 0-100 (0 no damage, 100 complete death); for phytotoxicity rating IPOHE: post-emerge, rating scale 0-100
In short: as §3

[18] = system: velvetleaf (Abutilon theophrasti, ABUTH); assay: as above; conditions: 14 days after application; for Post-emerge Herbicidal Activity, phytotoxicity rating ABUTH: rating scale 0-100 (0 no damage, 100 complete death); for phytotoxicity rating ABUTH: post-emerge, rating scale 0-100
In short: as §3

[19] = system: sicklepod (Cassia obtusifolia, CASOB); assay: as above; conditions: 14 days after application; for Post-emerge Herbicidal Activity, phytotoxicity rating CASOB: rating scale 0-100 (0 no damage, 100 complete death); for phytotoxicity rating CASOB: post-emerge, rating scale 0-100
In short: as §3

[20] = system: johnsongrass (Sorghum halepense, SORHA); assay: as above; conditions: 14 days after application; for Post-emerge Herbicidal Activity, phytotoxicity rating SORHA: rating scale 0-100 (0 no damage, 100 complete death); for phytotoxicity rating SORHA: post-emerge, rating scale 0-100
In short: as §3

[21] = system: lambsquarters (Chenopodium album, CHEAL); assay: as above; conditions: 14 days after application; for Post-emerge Herbicidal Activity, phytotoxicity rating CHEAL: rating scale 0-100 (0 no damage, 100 complete death); for phytotoxicity rating CHEAL: post-emerge, rating scale 0-100
In short: as §3

[22] = system: large crabgrass (Digitaria sanguinalis, DIGSA); assay: as above; conditions: 14 days after application; for Post-emerge Herbicidal Activity, phytotoxicity rating DIGSA: rating scale 0-100 (0 no damage, 100 complete death); for phytotoxicity rating DIGSA: post-emerge, rating scale 0-100
In short: as §3

[23] = 250 g ai/ha, crop damage rating 0-100, 14 days after application
[24] = 250 g ai/ha, phytotoxicity rating 0-100, 14 days after application

**Q.** Which results are given for `C#CCOC(=O)C(Cl)Cc1c(OC)c(Cl)cc(F)c1-n1c(=O)cc(C(F)(F)F)n(C)c1=O` (single isomer, unassigned) [14-19]?
**A.** Post-emerge phytotoxicity rating CORN (crop damage) ([1]; Rate 63 g ai/ha): 0; Post-emerge phytotoxicity rating CORN (crop damage) ([1]; Rate 250 g ai/ha): 40; Post-emerge phytotoxicity rating RICE (crop damage) ([2]; Rate 63 g ai/ha): 0; Post-emerge phytotoxicity rating RICE (crop damage) ([2]; Rate 250 g ai/ha): 20; Pre-emerge phytotoxicity rating, crop damage CORN ([3]; 63 g ai/ha): 0; Pre-emerge phytotoxicity rating, crop damage CORN ([3]; 250 g ai/ha): 0; Pre-emerge phytotoxicity rating, crop damage RICE ([4]; 63 g ai/ha): 0; Pre-emerge phytotoxicity rating, crop damage RICE ([4]; 250 g ai/ha): 0; Pre-emerge herbicidal activity, phytotoxicity rating AMARE ([5]; 63 g ai/ha): 0; Pre-emerge herbicidal activity, phytotoxicity rating AMARE ([5]; 250 g ai/ha): 90; Pre-emerge herbicidal activity, phytotoxicity rating ECHCG ([6]; 63 g ai/ha): 0; Pre-emerge herbicidal activity, phytotoxicity rating ECHCG ([6]; 250 g ai/ha): 0; Pre-emerge herbicidal activity, phytotoxicity rating SETVI ([7]; 63 g ai/ha): 0; Pre-emerge herbicidal activity, phytotoxicity rating SETVI ([7]; 250 g ai/ha): 0; Pre-emerge herbicidal activity, phytotoxicity rating IPOHE ([8]; 63 g ai/ha): 0; Pre-emerge herbicidal activity, phytotoxicity rating IPOHE ([8]; 250 g ai/ha): 0; Pre-emerge herbicidal activity, phytotoxicity rating ABUTH ([9]; 63 g ai/ha): 0; Pre-emerge herbicidal activity, phytotoxicity rating ABUTH ([9]; 250 g ai/ha): 50; Pre-emerge herbicidal activity, phytotoxicity rating CASOB ([10]; 63 g ai/ha): 0; Pre-emerge herbicidal activity, phytotoxicity rating CASOB ([10]; 250 g ai/ha): 0; Pre-emerge herbicidal activity, phytotoxicity rating SORHA ([11]; 63 g ai/ha): 0; Pre-emerge herbicidal activity, phytotoxicity rating SORHA ([11]; 250 g ai/ha): 0; Pre-emerge herbicidal activity, phytotoxicity rating CHEAL ([12]; 63 g ai/ha): 0; Pre-emerge herbicidal activity, phytotoxicity rating CHEAL ([12]; 250 g ai/ha): 80; Pre-emerge herbicidal activity, phytotoxicity rating DIGSA ([13]; 63 g ai/ha): 0; Pre-emerge herbicidal activity, phytotoxicity rating DIGSA ([13]; 250 g ai/ha): 80; Post-emerge Herbicidal Activity, phytotoxicity rating ECHCG ([14]; Rate 63 g ai/ha): 100; Post-emerge Herbicidal Activity, phytotoxicity rating ECHCG ([14]; Rate 250 g ai/ha): 100; Post-emerge Herbicidal Activity, phytotoxicity rating AMARE ([15]; Rate 63 g ai/ha, rating scale 0-100 (0 no damage, 100 complete death)): 90; Post-emerge Herbicidal Activity, phytotoxicity rating AMARE ([15]; Rate 250 g ai/ha, rating scale 0-100 (0 no damage, 100 complete death)): 100; Post-emerge Herbicidal Activity, phytotoxicity rating SETVI ([16]; Rate 63 g ai/ha): 0; Post-emerge Herbicidal Activity, phytotoxicity rating SETVI ([16]; Rate 250 g ai/ha): 30; Post-emerge Herbicidal Activity, phytotoxicity rating IPOHE ([17]; Rate 63 g ai/ha): 30; Post-emerge Herbicidal Activity, phytotoxicity rating IPOHE ([17]; Rate 250 g ai/ha): 90; Post-emerge Herbicidal Activity, phytotoxicity rating ABUTH ([18]; Rate 63 g ai/ha): 60; Post-emerge Herbicidal Activity, phytotoxicity rating ABUTH ([18]; Rate 250 g ai/ha): 100; Post-emerge Herbicidal Activity, phytotoxicity rating CASOB ([19]; Rate 63 g ai/ha): 40; Post-emerge Herbicidal Activity, phytotoxicity rating CASOB ([19]; Rate 250 g ai/ha): 70; Post-emerge Herbicidal Activity, phytotoxicity rating SORHA ([20]; Rate 63 g ai/ha): 0; Post-emerge Herbicidal Activity, phytotoxicity rating SORHA ([20]; Rate 250 g ai/ha): 0; Post-emerge Herbicidal Activity, phytotoxicity rating CHEAL ([21]; Rate 63 g ai/ha): 90; Post-emerge Herbicidal Activity, phytotoxicity rating CHEAL ([21]; Rate 250 g ai/ha): 100; Post-emerge Herbicidal Activity, phytotoxicity rating DIGSA ([22]; Rate 63 g ai/ha): 100; Post-emerge Herbicidal Activity, phytotoxicity rating DIGSA ([22]; Rate 250 g ai/ha): 100

**Q.** Which results are given for `Nn1c(C(F)(F)F)cc(=O)n(-c2c(F)cc(Cl)c(O)c2NC(=O)c2ccc3ccccc3c2)c1=O` [Compound 2-192]?
**A.** phytotoxicity rating CORN (crop damage) ([1]; 63 g ai/ha): 5; phytotoxicity rating CORN (crop damage) ([1]; 250 g ai/ha): 15; phytotoxicity rating RICE (crop damage) ([2]; 63 g ai/ha): 0; phytotoxicity rating RICE (crop damage) ([2]; 250 g ai/ha): 20; Pre-emerge Herbicidal Activity CORN [3, 23]: 0; Pre-emerge Herbicidal Activity RICE [4, 23]: 0; Pre-emerge Herbicidal Activity AMARE [5, 24]: 90; Pre-emerge Herbicidal Activity ECHCG [6, 24]: 0; Pre-emerge Herbicidal Activity SETVI [7, 24]: 0; Pre-emerge Herbicidal Activity IPOHE [8, 24]: 30; Pre-emerge Herbicidal Activity ABUTH [9, 24]: 85; Pre-emerge Herbicidal Activity CASOB [10, 24]: 0; Pre-emerge Herbicidal Activity SORHA [11, 24]: 0; Pre-emerge Herbicidal Activity CHEAL [12, 24]: 80; Pre-emerge Herbicidal Activity DIGSA [13, 24]: 0; phytotoxicity rating ECHCG ([14]; 63 g ai/ha): 0; phytotoxicity rating ECHCG ([14]; 250 g ai/ha): 0; phytotoxicity rating AMARE ([15]; 63 g ai/ha, rating scale 0-100 (0 no damage, 100 complete death)): 70; phytotoxicity rating AMARE ([15]; 250 g ai/ha, rating scale 0-100): 70; phytotoxicity rating SETVI ([16]; 63 g ai/ha): 0; phytotoxicity rating SETVI ([16]; 250 g ai/ha): 0; phytotoxicity rating IPOHE ([17]; 63 g ai/ha): 50; phytotoxicity rating IPOHE ([17]; 250 g ai/ha): 70; phytotoxicity rating ABUTH ([18]; 63 g ai/ha): 85; phytotoxicity rating ABUTH ([18]; 250 g ai/ha): 85; phytotoxicity rating CASOB ([19]; 63 g ai/ha): 40; phytotoxicity rating CASOB ([19]; 250 g ai/ha): 60; phytotoxicity rating SORHA ([20]; 63 g ai/ha): 0; phytotoxicity rating SORHA ([20]; 250 g ai/ha): 0; phytotoxicity rating CHEAL ([21]; 63 g ai/ha): 60; phytotoxicity rating CHEAL ([21]; 250 g ai/ha): 50; phytotoxicity rating DIGSA ([22]; 63 g ai/ha): 0; phytotoxicity rating DIGSA ([22]; 250 g ai/ha): 0
